Consider four molecules from PMC4937655 (Journal of Drug Assessment, 2013).

Entries after “also recorded” stand apart in the source; their conditions may differ. Read-outs that look alike come from different tables or passages of the source.

Series [1] can be described thus: Ticagrelor-ketoconazole interaction study: pharmacokinetic parameters of ticagrelor and AR-C124910XX. The following applies: for Cmax: po. The protocol: (§1) Both studies were single-center, randomized, open-label studies with a two-period, in-patient, crossover design. For both studies, a low non-loading dose of ticagrelor (i.e., a single oral dose of 90 mg) was selected, so if an interaction occurred between ticagrelor and the CYP3A4 inhibitor, then the increase in ticagrelor plasma concentrations would minimize any safety issues. […] The approved dosing regimen of ticagrelor is 180 mg loading dose followed by 90 mg twice daily thereafter3,4.
(§2) Figure 1 depicts the overall study design for both studies. At the start of each study, volunteers were randomized to one of two treatments (A or B). After the washout period, volunteers received the alternate dosing regimen. On the scheduled day, ticagrelor was co-administered with the CYP3A4 inhibitor in the morning after fasting for ≥10 hours followed by a further fast for ≥4 hours. Water was permitted ad libitum throughout each period except for 2 hours before and after ticagrelor administration.
(§3) The limits of quantification (LOQ) for ticagrelor and AR-C124910XX were […], respectively28.
(§4) Plasma concentration–time data were used to calculate Cmax, time to maximum concentration (tmax), AUC, and the terminal elimination half-life (t½). The latter was calculated as 0.693/λz, where λz is the terminal phase elimination rate constant, derived by least-squares regression analysis of the plasma concentration–time data obtained over the terminal log-linear phase. AUC was calculated using the linear trapezoidal method and extrapolated to infinity. AR-C124910XX:ticagrelor ratios for Cmax and AUC were calculated.
(§5) Statistical analyses were conducted using SAS version 8 (SAS Institute, Cary, North Carolina, USA). Pharmacokinetic parameters were summarized by descriptive statistics. AUC and Cmax values for ticagrelor and AR-C124910XX were analyzed, following log-transformation, by analysis of variance with terms for treatment, period, and sequence, and the volunteer within sequence was included as a random effect. After exponentiation, geometric least square mean point estimates and 90% CIs for the ratio ticagrelor + CYP3A4 inhibitor/ticagrelor alone were calculated. The pre-specified limits for the 90% CI values indicating no interaction between ticagrelor and either CYP3A4 inhibitor were 0.7–1.43.

Details of series [2]: method as in PMID 20091161. The following applies: single oral dose of ticagrelor 100 mg; healthy volunteers n = 9; cited from earlier work.
The test system of a further series is platelet aggregation. Also noted: method as in AstraZeneca, data on file. The following applies: ref AstraZeneca, data on file; cited from earlier work.
On the set-up of series [3]: method as in PMID 20551239, PMID 20091161, PMID 20642549, PMID 16476694, PMID 17980251. The following applies: cited from earlier work.
Series [4] can be described thus: Ticagrelor-diltiazem interaction study: pharmacokinetic parameters of ticagrelor and AR-C124910XX. The following applies: for Cmax: po. On the procedure: as §1, §2, §3, §4, §5
In another series the test system is P-glycoprotein. The following applies: ref 18 (AstraZeneca, data on file); cited from earlier work.
Details of series [5]: method as in PMID 19717846. The following applies: ticagrelor + aspirin compared with clopidogrel + aspirin; patients with ACS; cited from earlier work.
The nature of series [6]: Safety and tolerability, diltiazem study. Type of series: in vivo, human. The protocol:
(§6) Safety and tolerability of ticagrelor alone and in the presence of diltiazem or ketoconazole were evaluated by assessment of adverse events (AEs), vital signs, electrocardiographic (ECG), physical examination, and laboratory parameters (clinical chemistry, hematology, and urinalysis) throughout the studies.

The conditions of series [7]: cited from earlier work.
Series [8] in a line: Safety and tolerability, ketoconazole study. Format: in vivo, human. On the procedure: as §6
On the set-up of series [9]: method as in PMID 16476694. The following applies: 28 days, cited from earlier work.
For series [10] the following is noted: cited from earlier work. This is another data set of the same source.
In series [11] the test system is CYP3A. Also noted: method as in PMID 21177984. The following applies: cited from earlier work; for Inhibition of CYP3A activity in vitro: in words.
Series [12] can be described thus: Effect of ticagrelor on diltiazem pharmacokinetic parameters. Format: in vivo, human. The following applies: for Tmax: human, plasma, read-out: Median tmax (range); for Effect of ticagrelor on pharmacokinetic parameters: in words.
Series [13] has as its system CYP3A. The following applies: cited from earlier work.
The nature of series [14]: Effect of ticagrelor on ketoconazole steady-state plasma concentrations. Type of series: in vivo, human. The following applies: for Plasma concentration, mean (% CV; range): ketoconazole 200 mg twice daily. On the procedure: as §1, §3, §4
Setting [15] is: ketoconazole co-administration vs ticagrelor alone.
Setting [16] is: ticagrelor + ketoconazole/ticagrelor alone.
Setting [17] is: single dose 900 mg, healthy volunteers n = 6.
[18] abbreviates: diltiazem co-administration vs ticagrelor alone.
The mark [19] stands for this setting: ticagrelor + diltiazem/ticagrelor alone.

In the case of `CCCSc1nc(N[C@@H]2C[C@H]2c2ccc(F)c(F)c2)c2nnn([C@@H]3C[C@H](O)[C@@H](O)[C@H]3O)c2n1` [AR-C124910XX], in series [1] (human, in vivo), the “Metabolite:parent AUC ratio” value is recorded as 0.49 (24), the “Metabolite:parent Cmax ratio” value is 0.32 (22) and the Cmax is 207 (29) ng/mL. Moreover, in series [1] (human, in vivo, 90 mg), the AUC is 1769 (28) ng·h/mL, the Tmax is recorded as 2.0 (2.0–4.0) h and the t½ is 8.0 (6.3–16.7) h. Further, in series [2], the “AUC, mean ± standard deviation” value is recorded as 1460 ± 408 ng·h/mL. Also, the “Potency in inhibiting platelet aggregation relative to ticagrelor” value in the series with platelet aggregation is recorded as “approximately equipotent”. Moreover, the “Metabolite level as share of the levels of ticagrelor” value in series [3] is 30–40%. In series [4] (human, in vivo), the “Metabolite:parent AUC ratio” value is 0.4 (39), the “Metabolite:parent Cmax ratio” value was 0.3 (36) and the Cmax is recorded as 173 (38) ng/mL. Also, in series [4] (human, in vivo, 90 mg), the AUC was 1630 (29) ng·h/mL, the Tmax is listed as 3.0 (2.0–4.0) h and the t½ is 8.4 (1.3) h.

As to `CCCSc1nc(N[C@@H]2C[C@H]2c2ccc(F)c(F)c2)c2nnn([C@@H]3C[C@H](OCCO)[C@@H](O)[C@H]3O)c2n1` [Ticagrelor], the results for the “Increase in AUC” value in series [1] (co-administration of ketoconazole), in series [1] (setting [15]) and in series [4] (setting [18]) were at least 5 fold, 632% and 174%, respectively. Besides, the AUC in series [1] (human, plasma, oral, 90 mg) is 3640 ng·h/mL; in [4] (human, plasma, oral, 90 mg), 3700 ng·h/mL. Also, the Tmax is 2 h in series [1] (human, plasma, oral, 90 mg) and 2 h in series [4] (human, plasma, oral, 90 mg). In addition, the half-life (commonly how long it takes for the measured level to halve) in series [1] (human, plasma, oral, 90 mg) is 7.1 h; in series [4] (human, plasma, oral, 90 mg), 8.3 h. For the same molecule, the Cmax in series [1] (human, plasma, 90 mg) amounted to 654 ng/mL; in series [4] (human, plasma, 90 mg), 519 ng/mL. The “Increase in Cmax” value in series [1] (setting [15]) was 135%; in series [4] (setting [18]), 69%. Moreover, the “Half-life increased to (relative to ticagrelor alone)” value in [1] (presence of ketoconazole) is given as “approximately 362%”. For the same molecule, the figures for the “AUC GLS mean ratio: point estimate (90% CI)” value in series [1] (setting [16]) and in series [4] (setting [19]) were 7.32 (6.43–8.34) and 2.74 (2.40–3.13), respectively. Besides, the “Cmax GLS mean ratio: point estimate (90% CI)” value in series [1] (setting [16]) is listed as 2.35 (2.13–2.60); in series [4] (setting [19]), 1.69 (1.47–1.95). The P-glycoprotein substrate status result with P-glycoprotein is listed as “substrate”. Moreover, in series [5], the “Rate of myocardial infarction/stroke/death from vascular causes” value was “significantly reduced”. For the same molecule, the “AUC, mean ± standard deviation” value in series [2] is recorded as 3683 ± 753 ng·h/mL. The “Deaths or serious AEs” value in series [6] (diltiazem study) and in [8] (ketoconazole study) was “No deaths or serious AEs” throughout. Moreover, in series [6] (in vivo), the Bleeding events entry is “No such events”. Besides, the AEs reported result in series [6] (in vivo, po) is recorded as “No AEs”. The “Total bleeding events: number of events (Kaplan–Meier event rates)” value was 32 (9.8) in series [7] (90 mg twice daily, through week 4); 34 (10.9) in [7] (90 mg twice daily, through week 12); 25 (8.0) in series [7] (180 mg twice daily, through week 4); 33 (11.4) in [7] (180 mg twice daily, through week 12). Besides, the “Mean AUC ± SD” value in series [7] (90 mg twice daily, week 4) is 4762 ± 2443 ng·h/mL; in series [7] (180 mg twice daily, week 4), 13,198 ± 4982 ng·h/mL. In series [7] (180 mg vs 90 mg twice daily), the “Inhibition of platelet aggregation (IPA)” value is given as “dose-dependent increase”. Also, the “Increase in ticagrelor exposure” value in [7] (180 mg vs 90 mg twice daily, week 4) is 277%. Besides, in series [8] (in vivo), the AEs result is reported as “five AEs”. For the same molecule, the “Mean AUC” value in [9] (100 mg ticagrelor twice daily, CV 45%) is reported as 5337 ng·h/mL; in series [9] (200 mg ticagrelor twice daily, CV 39%), 15,104 ng·h/mL. Also, in series [9] (200 mg vs 100 mg twice daily), the Increase in exposure is given as 283%. For the same molecule, the “Maximum tolerated single dose” value in series [10] (healthy volunteers) was 900 mg. The “AUC, mean [% CV]” value in series [10] (setting [17]) was 39,153 [38] ng·h/mL. In addition, the “Bleeding-related AEs” value in series [10] (setting [17]) is “no bleeding-related AEs”. The “Cmax, mean [% CV]” value in series [10] (setting [17]) is 5153 [42] ng/mL. Moreover, in the series with CYP3A [11] (human liver microsomes / in vitro), the “Metabolism by CYP3A” value was “principally metabolized by CYP3A; also recorded: substrate”. Further, the “Inhibition of CYP3A activity in vitro” value in the series on CYP3A [11] is “weak-to-moderate inhibitor”; with CYP3A [11] (listed as ticagrelor) it was “weak inhibitor”. Moreover, the Increase in half-life in series [4] (setting [18]) is listed as 96%. The “Effect of diltiazem on median tmax” value in [4] (in words) was “unaffected”.

As for `COc1ccc([C@@H]2Sc3ccccc3N(CCN(C)C)C(=O)[C@@H]2OC(C)=O)cc1` [diltiazem, Diltiazem], the “Abnormal ECG evaluations of first-degree atria-ventricular block” value in series [6] (in vivo) is “two volunteers”. In addition, the “Systolic and diastolic blood pressure compared to baseline” value in series [6] (in vivo) is “marginal decrease”. Besides, the Tmax in series [12] (diltiazem + ticagrelor) was 10 h; in series [12] (diltiazem alone), 8 h. The “Effect of ticagrelor on pharmacokinetic parameters” value in [12] is given as “no effect; also recorded: did not affect”; in series [12] (listed as Diltiazem) it was “not significantly affected”.

Turning to `CC(=O)N1CCN(c2ccc(OCC3COC(Cn4ccnc4)(c4ccc(Cl)cc4Cl)O3)cc2)CC1` (stereo not drawn) [ketoconazole], the CYP3A substrate status result with CYP3A [13] was “substrates for CYP3A”. In addition, the “Classification as CYP3A inhibitor” value with CYP3A [13] is “strong CYP3A inhibitor”. Further, the “Effect of ticagrelor on steady-state plasma concentrations / pharmacokinetic parameters” value in [14] (in words) is “not significantly affected; also recorded: did not affect”. The “Plasma concentration, mean (% CV; range)” value is 1271 (84;334–4150) ng/mL in series [14] (12 hours post-dosing with ticagrelor on day 4) and 1410 (73; 396–3540) ng/mL in [14] (pre-dosing on day 4, absence of ticagrelor).
